Assay results as given in paper PMC12223358 (2025).

Key:
[1] = tested on: CPG-ds27 (DNA, hairpin) CGCGAATTCGCGTTTCGCGAATTCGCG; assay: G4-CPG affinity chromatography, UV; details: 50 mM KCl; 10% DMSO, 10% ethanol; 60 µM compound loaded; error ±2%
[2] = tested on: CPG-tel26 (DNA, G4) TTAGGGTTAGGGTTAGGGTTAGGGTT; assay: G4-CPG affinity chromatography, UV; details: 50 mM KCl; 10% DMSO, 10% ethanol; 60 µM compound loaded; error ±2%
[3] = tested on: CPG-c-myc (DNA, G4) TGGGGAGGGTGGGGAGGGTGGGGAAGGTGGGGA; assay: G4-CPG affinity chromatography, UV; details: 50 mM KCl; 10% DMSO, 10% ethanol; 60 µM compound loaded; error ±2%
[4] = tested on: pu22 (DNA, G4) TGAGGGTGGGTAGGGTGGGTAA; assay: CD melting, 263 nm; details: no metal cations, 10 mM Tris-HCl, pH 7, 2 µM DNA, 4 µM compound (2 equiv), free Tm 27 °C
[5] = tested on: ds12 (DNA, duplex) CGCGAATTCGCG; assay: CD melting, 253 nm; details: 20 mM KCl, 5 mM potassium phosphate; pH 7; 2 µM DNA; 4 µM compound (2 equiv); free Tm 65 °C
[6] = tested on: tel26 (DNA, G4) TTAGGGTTAGGGTTAGGGTTAGGGTT; assay: CD melting, 290 nm; details: 20 mM KCl, 5 mM potassium phosphate, pH 7, 2 µM DNA, 4 µM compound (2 equiv), free Tm 43 °C
[7] = tested on: ds12 (DNA, duplex) CGCGAATTCGCG; assay: CD titration; details: 20 mM KCl, 5 mM potassium phosphate; pH 7, 20 °C; 2 µM DNA; up to 4 µM compound; no relevant CD effect

Structure (SMILES)	Bound ligand (%) [1] [%]	Bound ligand (%) [2] [%]	Bound ligand (%) [3] [%]	ΔTm [4]	ΔTm [5]	ΔTm [6]	binding [7]	ΔTm ([4]; two transitions)	ΔTm ([6]; switch to parallel fold)
C[n+]1ccccc1C#Cc1cnc2n3ccnc3n3c(C#Cc4cccc[n+]4C)cnc3n12	39	74	84	–	–	–	–	–	–
C[n+]1ccc(C#Cc2cnc3n4ccnc4n4c(C#Cc5cc[n+](C)cc5)cnc4n23)cc1	40	79	100	+45 °C	–	–	–	–	–
C[n+]1ccccc1C#Cc1cnc2n3ccnc3n3ccnc3n12	10	72	85	–	−2 °C	+3 °C	no	–	–
C[n+]1ccccc1C#Cc1cnc2n1c1ncc(C#Cc3cccc[n+]3C)n1c1ncc(C#Cc3cccc[n+]3C)n21	56	89	99	–	+15 °C	–	–	+16/ + 63 °C	+22 °C
C[n+]1ccc(C#Cc2cnc3n2c2ncc(C#Cc4cc[n+](C)cc4)n2c2ncc(C#Cc4cc[n+](C)cc4)n32)cc1	50	75	90	–	+15 °C	–	–	–	+23 °C
C[n+]1ccc(C#Cc2cnc3n4ccnc4n4ccnc4n23)cc1	15	66	88	+8 °C	–	–	no	–	–
